Read-outs that look alike come from different tables or passages of the source.
Biological target: Cathepsin D (Cat D) (Homo sapiens (Human), UniProt P07339)
Test: In vitro enzymatic Cathepsin D (Cat D) FRET assay
Assay type: biochemical
Details: read-out: CatD IC50
Experimental: In Vitro Enzymatic Cathepsin D (Cat D) FRET (Fluorescence Resonance Energy Transfer) Assay
Recombinant Cat D was expressed in CHO cells. The assay buffer for CathepsinD is 0.05 M citrate pH 3.5, 10% DMSO final, 5 mM CHAPS. […] The assays are effectively started by the addition of different FRET substrates (20 nM for Cat D) and the combination is incubated for one hour. The FRET assay is terminated with by addition of Tris buffer, which raises the pH to neutrality, and the fluorescence is determined. The FRET substrate is a peptide with commercially available fluorophore and quencher, on opposite sides of the BACE cleavage site. […] Proteolytic cleavage of the FRET substrate releases quenching of fluorescence (Cat D excitation 500 nm and emission 580 nm).
In addition, the cathepsin D and cathepsin E assays are described in PCT publication WO2011069934.

[1] = average IC50, cathepsin D enzyme assay

Chain of Cathepsin D (Cat D) (P07339 65-412, species assumed): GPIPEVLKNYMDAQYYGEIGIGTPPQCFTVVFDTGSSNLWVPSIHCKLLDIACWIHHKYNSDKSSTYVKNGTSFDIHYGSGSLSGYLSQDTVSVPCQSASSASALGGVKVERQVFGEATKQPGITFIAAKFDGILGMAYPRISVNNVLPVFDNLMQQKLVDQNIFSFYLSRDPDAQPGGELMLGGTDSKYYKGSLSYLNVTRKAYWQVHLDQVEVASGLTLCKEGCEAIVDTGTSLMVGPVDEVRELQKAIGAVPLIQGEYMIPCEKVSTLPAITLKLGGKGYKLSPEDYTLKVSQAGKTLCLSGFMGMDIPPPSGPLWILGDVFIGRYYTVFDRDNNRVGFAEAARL

| IC50 (average IC50) | Structure (SMILES) | further results |
| --- | --- | --- |
| > 400 µM | COc1cnc(C(=O)Nc2ccc(F)c([C@]3(CF)C[C@@H](C(F)(F)F)OC(N)=N3)c2)c(C)n1 [Example 33, N-(3-((4S,6S)-2-amino-4-(fluoromethyl)-6-(trifluoromethyl)-5,6-dihydro-4H-1,3-oxazin-4-yl)-4-fluorophenyl)-5-methoxy-3-methylpyrazine-2-carboxamide] |  |
| 2390 µM | NC1=N[C@](CF)(c2cc(NC(=O)c3ncc(Cl)cc3Cl)ccc2F)C[C@@H](C(F)(F)F)O1 [Example 58, N-(3-((4S,6S)-2-amino-4-(fluoromethyl)-6-(trifluoromethyl)-5,6-dihydro-4H-1,3-oxazin-4-yl)-4-fluorophenyl)-3,5-dichloropicolinamide] |  |
| > 400 µM | COc1cnc(C(=O)Nc2ccc(F)c([C@]3(CF)C[C@H](C(F)(F)F)OC(N)=N3)c2)cn1 (racemic) [Example 25, N-(3-((4S,6R)-2-amino-4-(fluoromethyl)-6-(trifluoromethyl)-5,6-dihydro-4H-1,3-oxazin-4-yl)-4-fluorophenyl)-5-methoxypyrazine-2-carboxamide] |  |
| > 400 µM | NC1=N[C@](CF)(c2cc(NC(=O)c3ncc(Br)cc3Cl)ccc2F)C[C@@H](C(F)(F)F)O1 [Example 56, N-(3-((4S,6S)-2-amino-4-(fluoromethyl)-6-(trifluoromethyl)-5,6-dihydro-4H-1,3-oxazin-4-yl)-4-fluorophenyl)-5-bromo-3-chloro-2-pyridinecarboxamide] |  |
| > 400 µM | COc1ccc(C(=O)Nc2ccc(F)c([C@]3(CF)C[C@@H](C(F)(F)F)OC(N)=N3)c2)nc1 [Example 49, N-(3-((4S,6S)-2-amino-4-(fluoromethyl)-6-(trifluoromethyl)-5,6-dihydro-4H-1,3-oxazin-4-yl)-4-fluorophenyl)-5-methoxypicolinamide] |  |

Further lines, the compound ahead of its results:

| Structure (SMILES) | IC50 (average IC50) | further results |
| --- | --- | --- |
| Cc1nc(OCC(F)(F)F)cnc1C(=O)Nc1ccc(F)c([C@]2(CF)C[C@@H](C(F)(F)F)OC(N)=N2)c1 [Example 38, N-(3-((4S,6S)-2-amino-4-(fluoromethyl)-6-(trifluoromethyl)-5,6-dihydro-4H-1,3-oxazin-4-yl)-4-fluorophenyl)-3-methyl-5-(2,2,2-trifluoroethoxy)pyrazine-2-carboxamide] |  | IC50 [1]: > 400 µM |
| Cc1cc(NC(=O)c2ccc(C(F)F)cn2)cc([C@]2(CF)C[C@@H](C(F)(F)F)OC(N)=N2)c1F [Example 221, N-(3-((4S,6S)-2-amino-4-(fluoromethyl)-6-(trifluoromethyl)-5,6-dihydro-4H-1,3-oxazin-4-yl)-4-fluoro-5-methylphenyl)-5-(difluoromethyl)picolinamide] |  | IC50 (average): 992 µM |
| N#Cc1cnc2c(Nc3ccc(F)c([C@]4(CF)C[C@@H](C(F)(F)F)OC(N)=N4)c3)ncc(F)c2c1 [Example 10, 8-((3-((4S,6S)-2-amino-4-(fluoromethyl)-6-(trifluoromethyl)-5,6-dihydro-4H-1,3-oxazin-4-yl)-4-fluorophenyl)amino)-5-fluoro-1,7-naphthyridine-3-carbonitrile] | > 44 µM |  |
| NC1=N[C@](CF)(c2cc(NC(=O)c3ccc(C#CC4CC4)cn3)cc(F)c2F)C[C@@H](C(F)(F)F)O1 [Example 158, N-(3-((4S,6S)-2-amino-4-(fluoromethyl)-6-(trifluoromethyl)-5,6-dihydro-4H-1,3-oxazin-4-yl)-4,5-difluorophenyl)-5-(cyclopropylethynyl)picolinamide] |  | IC50 [1]: > 400 µM |
| C[C@@]1(c2cc(NC(=O)c3ccc(Cl)cn3)cc(F)c2Cl)C[C@@H](C(F)(F)F)OC(N)=N1 [Example 236, N-(3-((4S,6S)-2-amino-4-methyl-6-(trifluoromethyl)-5,6-dihydro-4H-1,3-oxazin-4-yl)-4-chloro-5-fluorophenyl)-5-chloropicolinamide] |  | IC50 (average): 408 µM |
| C[C@@]1(c2nc(NC(=O)c3ncc(Br)cc3Cl)ccc2F)C[C@@H](C(F)(F)F)OC(N)=N1 [Example 86, N-(6-((4S,6S)-2-amino-4-methyl-6-(trifluoromethyl)-5,6-dihydro-4H-1,3-oxazin-4-yl)-5-fluoropyridin-2-yl)-5-bromo-3-chloropicolinamide] | 636 µM |  |
| NC1=N[C@](CF)(c2cc(Oc3ncccc3Cl)ccc2F)C[C@@H](C(F)(F)F)O1 [Example 97, (4S,6S)-4-(5-((3-chloropyridin-2-yl)oxy)-2-fluorophenyl)-4-(fluoromethyl)-6-(trifluoromethyl)-5,6-dihydro-4H-1,3-oxazin-2-amine] | 1010 µM |  |
| C#CCOc1cnc(C(=O)Nc2cnc(F)c([C@]3(C)C[C@@H](C(F)(F)F)OC(N)=N3)c2)cn1 [Example 73, N-(5-((4S,6S)-2-amino-4-methyl-6-(trifluoromethyl)-5,6-dihydro-4H-1,3-oxazin-4-yl)-6-fluoropyridin-3-yl)-5-(prop-2-yn-1-yloxy)pyrazine-2-carboxamide] |  | IC50 (average): 1690 µM |
| C[C@@]1(c2nc(NC(=O)c3ncc(C#N)cc3Cl)ccc2F)C[C@@H](C(F)(F)F)OC(N)=N1 [Example 82, N-(6-((4S,6S)-2-amino-4-methyl-6-(trifluoromethyl)-5,6-dihydro-4H-1,3-oxazin-4-yl)-5-fluoropyridin-2-yl)-3-chloro-5-cyanopicolinamide] | > 400 µM |  |
| Cc1cc(Cl)cnc1C(=O)Nc1ccc(F)c([C@]2(C)C[C@@H](C(F)(F)F)OC(N)=N2)c1 (racemic) [Example 31, N-(3-((4SR,6SR)-2-amino-4-methyl-6-(trifluoromethyl)-5,6-dihydro-4H-1,3-oxazin-4-yl)-4-fluorophenyl)-5-chloro-3-methyl-2-pyridinecarboxamide] | 202 µM |  |
| NC1=N[C@](CF)(c2cc(Oc3cc(C(F)(F)F)ccn3)ccc2F)C[C@@H](C(F)(F)F)O1 [Example 99, (4S,6S)-4-(2-Fluoro-5-((4-(trifluoromethyl)pyridin-2-yl)oxy)phenyl)-4-(fluoromethyl)-6-(trifluoromethyl)-5,6-dihydro-4H-1,3-oxazin-2-amine] | > 400 µM |  |
| COc1cnc(C(=O)Nc2cnc(F)c([C@]3(C)C[C@@H](C(F)(F)F)OC(N)=N3)c2)c(Cl)c1 [Example 69, N-(5-((4S,6S)-2-amino-4-methyl-6-(trifluoromethyl)-5,6-dihydro-4H-1,3-oxazin-4-yl)-6-fluoropyridin-3-yl)-3-chloro-5-methoxypicolinamide] | > 400 µM |  |
| CC#CCOc1ccc(C(=O)Nc2cc(F)c(F)c([C@]3(CF)C[C@@H](C(F)(F)F)OC(N)=N3)c2)nc1 [Example 160, N-(3-((4S,6S)-2-amino-4-(fluoromethyl)-6-(trifluoromethyl)-5,6-dihydro-4H-1,3-oxazin-4-yl)-4,5-difluorophenyl)-5-(but-2-yn-1-yloxy)picolinamide] |  | IC50 [1]: > 400 µM |
| C#CCOC1CCN(C(=O)Nc2ccc(F)c([C@]3(C)C[C@@H](C(F)(F)F)OC(N)=N3)c2)CC1 [Example 120, N-(3-((4S,6S)-2-amino-4-methyl-6-(trifluoromethyl)-5,6-dihydro-4H-1,3-oxazin-4-yl)-4-fluorophenyl)-4-(prop-2-yn-1-yloxy)piperidine-1-carboxamide] |  | IC50 [1]: > 400 µM |
| NC1=N[C@](CF)(c2cc(Oc3ccccn3)ccc2F)C[C@@H](C(F)(F)F)O1 [Example 101, (4S,6S)-4-(2-fluoro-5-(pyridin-2-yloxy)phenyl)-4-(fluoromethyl)-6-(trifluoromethyl)-5,6-dihydro-4H-1,3-oxazin-2-amine] |  | IC50 [1]: > 400 µM |

From US9296734B2 (AMGEN INC., priority 2013, dated 2016)
